Legend:
ALOMY = assay: Post-emergence application in greenhouse trials; type: in vivo, Alopercurus myosuroides; details: 7 DAT, growth stage 21, saflufenacil as commercial 342 g/l SC formulation
Procedure: (§1) In the examples below, using the method of S. R. Colby (1967) “Calculating synergistic and antagonistic responses of herbicide combinations”, Weeds 15, p. 22ff., the value E, which is expected if the activity of the individual active compounds is only additive, was calculated.
(§2) [formula] • where • X=percent activity using active herbicide A at an application rate a; • Y=percent activity using active saflufenacil at an application rate b; • E=expected activity (in %) by A+B at application rates a+b.
(§3) If the value found experimentally is higher than the value E calculated according to Colby, a synergistic effect is present.
(§4) The culture containers used were plastic pots containing loamy sand with approximately 3.0% of humus as substrate. The seeds of the test plants were sown separately for each species.
For the post-emergence treatment, the test plants were grown to a plant height of from 3 to 15 cm, depending on the plant habit, and only then treated with the active compounds which had been suspended or emulsified in water. To this end, the test plants were either sown directly, and grown in the same containers, or they were first grown separately as seedlings and transplanted into the test containers a few days prior to treatment. […]
The test period extended over 2 to 4 weeks. During this time, the plants were tended and their response to the individual treatments was evaluated. […]

ERISS = assay: Post-emergence application in field trials (Examples 2 and 3); type: in vivo, Erigeron sp.; details: 14 DAT, height 30-50 cm, 0.5% v/v MSO
Procedure: as §1, §2, §3
(§5) On field test sites, natural weed infestation or seeded weeds were treated post-emergence of the weeds.
(§6) For the post emergence treatment, the weedy plants were treated as indicated below. The herbicidal compositions were, together with the adjuvant(s) as indicated, suspended or emulsified in water (200 l/ha unless indicated otherwise) as distribution medium and sprayed with commercial flat fan nozzles.
(§7) In the following experiments, the herbicidal activity for the individual herbicidal compositions (solo and mixture applications) was assessed the indicated days after treatment (DAT). The assessments for the damage on undesired weeds caused by the composition was carried out using a scale from 0 to 100%, compared to the untreated control plants. Here, 0 means no damage and 100 means complete destruction of the plants.
as §6, with “I/ha” for “l/ha”

AVEFA = assay: as above; type: in vivo, Avena fatua; details: 1% v/v MSO
Procedure: as §1, §2, §3, §5, §6, §7
as §6, with “I/ha” for “l/ha”

LOLRI = assay: as above; type: in vivo, Lolium rigidum; details: 14 DAT, 1% v/ MSO
Procedure: as §1, §2, §3, §5, §6
as §7, with “Here, 0 means no damage and 100 means complete destruction of the plants.” left out

ERICA = assay: Post-emergence application in greenhouse trials; type: in vivo, Erigeron canadensis; details: 21 DAT, growth stage 31, saflufenacil as commercial 342 g/l SC formulation
Procedure: as §1, §2, §3, §4
(§8) For the post-emergence treatment, the test plants were grown to a plant height of from 3 to 15 cm, depending on the plant habit, and only then treated with the active compounds which had been suspended or emulsified in water. To this end, the test plants were either sown directly, and grown in the same containers, or they were first grown separately as seedlings and transplanted into the test containers a few days prior to treatment.
(§9) Depending on the species, the plants were kept at 10-25° C. and 20-35° C., respectively.
(§10) The test period extended over 2 to 4 weeks. During this time, the plants were tended and their response to the individual treatments was evaluated.
(§11) Evaluation was carried out using a scale from 0 to 100. 100 means no emergence of the plants, or complete destruction of at least the above-ground parts, and 0 means no damage or normal course of growth. A good herbicidal activity is given at values of at least 70, and very good herbicidal activity is given at values of at least 85.
(§12) Unless indicated otherwise, herbicide A and saflufenacil were formulated (50 g/I) and applied with addition of 1% MSO (methylated seed oil) as adjuvant. In the greenhouse trials, the solvent used was water (200 I/ha).

POAAN = assay: Post-emergence application in field trials (Examples 2 and 3); type: in vivo, Poa annua
Procedure: as §1, §2, §3, §5, §6, §7
as §6, with “I/ha” for “l/ha”

CYPES = assay: as above; type: in vivo, Cyperus esculentus; details: 21 DAT, height 15-23 cm, 140 l/ha water, 1% MSO + 2.5% ammoniumsulfate
Procedure: as §1, §2, §3, §5, §6
as §7, with “Here, 0 means no damage and 100 means complete destruction of the plants.” left out

SETIT = assay: as above; type: in vivo, Setaria italica; details: height 21-31 cm, 22 DAT, 1% v/v MSO
Procedure: as §1, §2, §3, §5, §6
as §7, with “Here, 0 means no damage and 100 means complete destruction of the plants.” left out

KCHSC = assay: Post-emergence application in greenhouse trials; type: in vivo, Kochia scoparia; details: growth stage 33, 1% MSO
Procedure: as §1, §2, §3, §4, §8, §9, §10, §11, §12

[1] = system: SORVU* (non-PPOi herbicide tolerant); assay: Post-emergence application in field trials (Examples 2 and 3); type: in vivo, Sorghum vulgare
Procedure: as §1, §2, §3, §5, §6, §7
as §6, with “I/ha” for “l/ha”

ECHCG = assay: Post-emergence application in greenhouse trials; type: in vivo, Echinocloa crus-galli; details: growth stage 13, saflufenacil as commercial 342 g/l SC formulation
Procedure: as §1, §2, §3, §4, §8, §9, §10, §11, §12

COMBE = assay: Post-emergence application in field trials (Examples 2 and 3); type: in vivo, Commelina benghalensis; details: 21 DAT, growth stage 11-14, height 2-10 cm, 0.5% MSO
Procedure: as §1, §2, §3, §5, §6
as §7, with “Here, 0 means no damage and 100 means complete destruction of the plants.” left out

DIGIN = assay: as above; type: in vivo, Digitaria insularis
Procedure: as §1, §2, §3, §5, §6, §7
as §6, with “I/ha” for “l/ha”

BIDPI = assay: as above; type: in vivo, Bidens pilosa; details: 21 DAT, growth stage 12-16, height 5-10 cm, 0.5% MSO
Procedure: as §1, §2, §3, §5, §6
as §7, with “Here, 0 means no damage and 100 means complete destruction of the plants.” left out

AVEST = assay: as above; type: in vivo, Avena stirilis; details: 14 DAT, 1% v/ MSO
Procedure: as §1, §2, §3, §5, §6
as §7, with “Here, 0 means no damage and 100 means complete destruction of the plants.” left out

[2] = growth stage 12-22, B-1 solo 25 g ai/ha

CC(C)N(C)S(=O)(=O)NC(=O)c1cc(-n2c(=O)cc(C(F)(F)F)n(C)c2=O)c(F)cc1Cl [B-1, saflufenacil]
% Herbicidal activity (ALOMY; B-1 3.12 g ai/ha): 25%
% Herbicidal activity (ERISS; B-1 25 g ai/ha): 63%
% Herbicidal activity (AVEFA; AVEFA, growth stage 15-16, height 25-38 cm, B-1 solo 25 g ai/ha, 16 DAT): 3%
% Herbicidal activity (AVEFA; B-1 18 g ai/ha, 28 DAT, growth stage 14-15, height 9-16 cm, field, 100 l/ha water): 0%
% Herbicidal activity (AVEFA; B-1 18 g ai/ha, 29 DAT, growth stage 14-23, height 24-40 cm, field, 100 l/ha water): 0%
% Herbicidal activity (LOLRI; [2]): 20%
% Herbicidal activity (ERICA; B-1 3.12 g ai/ha): 30%
% Herbicidal activity (POAAN; B-1 12.5 g ai/ha, 21 DAT, growth stage 55-65, height 10-15 cm, field, 140 l/ha water, 1% MSO + 2.5% ammoniumsulfate): 18%
% Herbicidal activity (POAAN; POAAN, height 2.5-4 cm, B-1 solo 25 g ai/ha, 7 DAT, 1% v/v MSO): 12%
% Herbicidal activity (CYPES; B-1 12.5 g ai/ha): 25%
% Herbicidal activity (SETIT; B-1 solo 25 g ai/ha): 23%
% Herbicidal activity (KCHSC; B-1 0.2 g ai/ha, 6 DAT): 15%
% Herbicidal activity (KCHSC; B-1 0.3 g ai/ha, 6 DAT): 35%
% Herbicidal activity (KCHSC; B-1 0.8 g ai/ha, 6 DAT): 60%
% Herbicidal activity (KCHSC; B-1 0.8 g ai/ha, 20 DAT): 70%
% Herbicidal activity (KCHSC; B-1 0.9 g ai/ha, 6 DAT): 60%
% Herbicidal activity (KCHSC; B-1 1 g ai/ha, 6 DAT): 80%
% Herbicidal activity (KCHSC; B-1 1 g ai/ha, 20 DAT): 80%
% Herbicidal activity ([1]; B-1 25 g ai/ha, 25 DAT, growth stage 14-15, field, 0.25 l/ha Dash MSO Max ®): 3%
% Herbicidal activity ([1]; SORVU* (non-PPOi herbicide tolerant), height 21-31 cm, B-1 solo 25 g ai/ha, 22 DAT, 1% v/v MSO): 13%
% Herbicidal activity (ECHCG; B-1 3.12 g ai/ha, 7 DAT): 65%
% Herbicidal activity (ECHCG; B-1 3.12 g ai/ha, 21 DAT): 40%
% Herbicidal activity (COMBE; B-1 25 g ai/ha): 5%
% Herbicidal activity (DIGIN; B-1 25 g ai/ha, 7 DAT, height 60-80 cm, field, 0.5% v/v MSO): 8%
% Herbicidal activity (DIGIN; DIGIN, growth stage 65, height 40-50 cm, B-1 solo 25 g ai/ha, 21 DAT, 1% v/v MSO): 5%
% Herbicidal activity (BIDPI; B-1 25 g ai/ha): 5%
% Herbicidal activity (AVEST; [2]): 0%

CCOC(=O)COc1ccccc1Oc1nc(-n2c(=O)cc(C(F)(F)F)n(C)c2=O)c(F)cc1Cl [A-1, ethyl 2-[2-[[3-chloro-5-fluoro-6-[3-methyl-2,6-dioxo-4-(trifluoromethyl)pyrimidin-1-yl]-2-pyridyl]oxy]phenoxy]acetate]
% Herbicidal activity (ALOMY; A-1 3.12 g ai/ha): 70%
% Herbicidal activity (ERISS; A-1 25 g ai/ha): 13%
% Herbicidal activity (ERISS; A-1 50 g ai/ha): 18%
% Herbicidal activity (AVEFA; A-1 18 g ai/ha, 28 DAT, growth stage 14-15, height 9-16 cm, field, 100 l/ha water): 83%
% Herbicidal activity (AVEFA; A-1 18 g ai/ha, 29 DAT, growth stage 14-23, height 24-40 cm, field, 100 l/ha water): 80%
% Herbicidal activity (AVEFA; AVEFA, growth stage 15-16, height 25-38 cm, A-1 solo 12.5 g ai/ha, 16 DAT): 90%
% Herbicidal activity (AVEFA; AVEFA, growth stage 15-16, height 25-38 cm, A-1 solo 25 g ai/ha, 16 DAT): 95%
% Herbicidal activity (AVEFA; AVEFA, growth stage 15-16, height 25-38 cm, A-1 solo 50 g ai/ha, 16 DAT): 98%
% Herbicidal activity (LOLRI; growth stage 12-22, A-1 solo 25 g ai/ha): 85%
% Herbicidal activity (ERICA; A-1 1.56 g ai/ha): 10%
% Herbicidal activity (ERICA; A-1 3.12 g ai/ha): 10%
% Herbicidal activity (ERICA; A-1 6.25 g ai/ha): 30%
% Herbicidal activity (POAAN; A-1 12.5 g ai/ha, 21 DAT, growth stage 55-65, height 10-15 cm, field, 140 l/ha water, 1% MSO + 2.5% ammoniumsulfate): 33%
% Herbicidal activity (POAAN; POAAN, height 2.5-4 cm, A-1 solo 12.5 g ai/ha, 7 DAT, 1% v/v MSO): 83%
% Herbicidal activity (POAAN; POAAN, height 2.5-4 cm, A-1 solo 25 g ai/ha, 7 DAT, 1% v/v MSO): 88%
% Herbicidal activity (CYPES; A-1 12.5 g ai/ha): 47%
% Herbicidal activity (SETIT; A-1 solo 40 g ai/ha): 83%
% Herbicidal activity (KCHSC; A-1 0.2 g ai/ha, 6 DAT): 15%
% Herbicidal activity (KCHSC; A-1 0.2 g ai/ha, 20 DAT): 15%
% Herbicidal activity (KCHSC; A-1 0.3 g ai/ha, 6 DAT): 55%
% Herbicidal activity (KCHSC; A-1 0.4 g ai/ha, 6 DAT): 55%
% Herbicidal activity (KCHSC; A-1 0.4 g ai/ha, 20 DAT): 55%
% Herbicidal activity (KCHSC; A-1 0.9 g ai/ha, 6 DAT): 90%
% Herbicidal activity (KCHSC; A-1 1 g ai/ha, 6 DAT): 95%
% Herbicidal activity ([1]; A-1 50 g ai/ha, 25 DAT, growth stage 14-15, field, 0.25 l/ha Dash MSO Max ®): 93%
% Herbicidal activity ([1]; SORVU* (non-PPOi herbicide tolerant), height 21-31 cm, A-1 solo 30 g ai/ha, 22 DAT, 1% v/v MSO): 96%
% Herbicidal activity (ECHCG; A-1 1.56 g ai/ha, 7 DAT): 70%
% Herbicidal activity (ECHCG; A-1 1.56 g ai/ha, 21 DAT): 55%
% Herbicidal activity (COMBE; A-1 50 g ai/ha): 94%
% Herbicidal activity (DIGIN; A-1 50 g ai/ha, 7 DAT, height 60-80 cm, field, 0.5% v/v MSO): 70%
% Herbicidal activity (DIGIN; DIGIN, growth stage 65, height 40-50 cm, A-1 solo 30 g ai/ha, 21 DAT, 1% v/v MSO): 53%
% Herbicidal activity (BIDPI; A-1 25 g ai/ha): 94%
% Herbicidal activity (AVEST; growth stage 12-22, A-1 solo 12.5 g ai/ha): 95%
